The structures appear in SMILES notation.

The subject of one assay is Aβ42. In words: cell-based moderate throughput Aβ42 ELISA in SH-SY5Y-APP cells. The settings on record: Homo sapiens, SH-SY5Y, human SHSY5Y neuroblastoma cells stably overexpressing human APP, Aβ42 secreted into media. As to the method:
A variety of cell lines normally produce and secrete various Aβ peptide alloforms into the media upon culture in supportive media. Examples of cell lines routinely used to assess the ability of a compound to inhibit formation specific Aβ peptide alloforms such as Aβ42, upon treatment of the cells with various concentrations of the compound for approximately 16 h followed by determining the concentration of the various Aβ peptide alloforms in the media both with and without treatment with the compound [(e.g., HEK-293, N2a delta E9/Swe, SHSY5Y and primary cerebral cortical neuronal cultures from embryonic day 18 (E18) embryos from timed pregnant WT Sprague-Dawley rats) (Netzer, W I et al., Gleevec inhibits β-amyloid production but not Notch cleavage. See e.g., Proc. Natl. Acad. Sci. U.S.A. 2003; 100:12444-12449.
The SH-SY5Y-APP human cell line was derived by transfecting a human neuroblastoma (SH-SY5Y) cell line with a plasmid expressing wild type human APP751 cDNA and selecting for stable expression of human APP and human Aβ. In each case, the levels of Aβ42 or Aβtotal or Aβ38 peptides secreted into the media of these cells were measured using either two-site monoclonal antibody (mAb)-based sandwich ELISA assays (described herein for Aβ42 and Aβtotal) or in the case of Aβ38 EC50's, using either the Meso Scale Aβ38, 40, 42 triplex kit along with the Meso Scale Sector Imager 6000 according to the manufacturer's protocols. This SH-SY5Y-APP human cell line was used for all cell-based Aβ peptide immunochemical assays.
SH-SY5Y-APP cells were plated at 75,000 cells/well in 96-well tissue culture plates. After 16-18 h, the culture medium was replaced with fresh medium containing either compound or vehicle. Replicates of 3 wells per test concentration were used, with 10 concentrations at ½ log step intervals. Vehicle (0.12% DMSO) is included as a control.
Compounds disclosed herein were synthesized and assayed for biological activity (EC50) in a cell-based moderate throughput Aβ42 ELISA that utilizes human SHSY5Y neuroblastoma cells stably overexpressing human […] wild-type, as known in the art.
On the technique in general: In an ELISA, binding on a coated surface is turned into a signal by an enzyme label.
For the molecule `COc1nc(-c2csc(N3CC(O)Cn4nc5c(c43)CCC5)n2)ccc1-n1cnc(C)c1` (stereo not drawn) [15495 A], the IC50 – broadly, the concentration that inhibits the measured activity by half – worked out at 53 nM.
On the same count and under the same terms, next, `CCn1nc2c(c1Nc1nc(-c3ccc(-n4cnc(C)c4)c(OC)n3)cs1)CCCC2` [Cmpd 003077]: 56 nM; `CCn1nc2c(c1Nc1nc(-c3ccc(-n4cnc(C)c4)c(OC)n3)cs1)CCC2` [Cmpd 003783]: 33 nM.
Still for that read-out and setting: next, `COc1nc(-c2csc(Nc3c4c(nn3C(C)(C)C)CCCC4)n2)cnc1-n1cnc(C)c1` [Cmpd 004019]: 71 nM; `CCn1nc(C(F)(F)F)cc1Nc1nc(-c2ccc(-n3cnc(C)c3)c(OC)n2)cs1` [Cmpd 004102]: 57 nM; `COc1nc(-c2csc(Nc3c4c(nn3C)CCC4)n2)ccc1-n1cnc(C)c1` [Cmpd 004346]: 77 nM.
The same measure, in the same setting: the figure for `CCn1nc2c(c1Nc1nc(-c3ccc(-n4cnc(C)c4)c(OC)n3)cs1)CCC2(C)C` [Cmpd 004365] is 38 nM; for `COc1nc(-c2csc(Nc3c4c(nn3CC(F)(F)F)CCC4)n2)ccc1-n1cnc(C)c1` [Cmpd 004723] it is 35 nM; for `CCn1nc(C2(C)CC2)cc1Nc1nc(-c2ccc(-n3cnc(C)c3)c(OC)n2)cs1` [Cmpd 13563] it is 24 nM.
`COc1nc(-c2csc(N3CCCn4nc5c(c43)CCCC5)n2)ccc1-n1cnc(C)c1` [Cmpd 13636] showed a half-inhibitory concentration (IC50) of 6 nM.
On the same count and under the same terms, the figure for `COc1nc(-c2csc(Nc3c4c(nn3CC(C)(C)O)CCCC4)n2)ccc1-n1cnc(C)c1` [Cmpd 13674] is 20 nM; for `COc1nc(-c2csc(Nc3c4c(nn3CCF)CCCC4)n2)ccc1-n1cnc(C)c1` [Cmpd 13680] it is 17 nM.
The same measure, in the same setting: the figure for `CCn1nc2c(c1Nc1nc(-c3ccc(-n4cnc(C)c4)c(OC)n3)c(CO)s1)CCCC2` [Cmpd 13765] is 35 nM; for `COc1nc(-c2csc(Nc3cc(C4(C)CC4)nn3C)n2)ccc1-n1cnc(C)c1` [Cmpd 13886] it is 75 nM.
`COc1nc(-c2csc(Nc3cc(C4(C(F)(F)F)CC4)nn3C)n2)ccc1-n1cnc(C)c1` [Cmpd 13887] yielded an IC50 of 11 nM.
Still for that read-out and setting: next, `COc1nc(-c2csc(Nc3cc(C4(C)CC4)nn3CC(F)(F)F)n2)ccc1-n1cnc(C)c1` [Cmpd 13921]: 27 nM.
On the same count and under the same terms, the figure for `COc1nc(-c2csc(Nc3cc(C4(C)CC4)nn3CCF)n2)ccc1-n1cnc(C)c1` [Cmpd 13922] is 67 nM; for `COc1nc(-c2csc(N3CCCn4nc5c(c43)CCC5)n2)ccc1-n1cnc(C)c1` [Cmpd 14035] it is 19 nM.
In turn, `COc1nc(-c2csc(Nc3c4c(nn3CC(C)(C)O)CCC4)n2)ccc1-n1cnc(C)c1` [Cmpd 14104] yielded an IC50 of 39 nM.
Same read-out and setting: the figure for `COc1nc(-c2csc(Nc3c4c(nn3CCF)CCC4)n2)ccc1-n1cnc(C)c1` [Cmpd 14106] is 64 nM; for `CCn1nc2c(c1Nc1nc(-c3cnc(-n4cnc(C)c4)c(OC)n3)cs1)CCCC2` [Cmpd 14257] it is 89 nM; for `CCn1nc2c(c1Nc1nc(-c3ccc(-n4cnc(C)c4)c(OC)n3)c(CN(C)C)s1)CCCC2` [Cmpd 14508] it is 85 nM.
Same read-out and setting: the figure for `CCn1nc2c(c1Nc1nc(-c3ccc(-n4cnc(C)c4)c(OC)n3)c(CN3CCN(C)CC3)s1)CCCC2` [Cmpd 14548] is 98 nM; for `COc1nc(-c2csc(N3CC(F)Cn4nc5c(c43)CCCC5)n2)ccc1-n1cnc(C)c1` (stereo not drawn) [Cmpd 14676] it is 10 nM.
On to `CCn1nc2c(c1Nc1csc(-c3ccc(-n4cnc(C)c4)c(OC)n3)n1)CCCC2` [Cmpd 14777], for which half-maximal inhibition (IC50) was put at 22 nM.
Same read-out and setting: the figure for `COc1nc(-c2csc(N3CC(N4C(=O)CCC4=O)Cn4nc5c(c43)CCCC5)n2)ccc1-n1cnc(C)c1` (stereo not drawn) [Cmpd 14780] is 67 nM; for `COc1nc(-c2csc(N3C/C(=N\O)Cn4nc5c(c43)CCC5)n2)ccc1-n1cnc(C)c1` [Cmpd 14839] it is 57 nM; for `COc1nc(-c2csc(N3CC(N(C)C)Cn4nc5c(c43)CCCC5)n2)ccc1-n1cnc(C)c1` (stereo not drawn) [Cmpd 14885] it is 59 nM.
Still for that read-out and setting: the figure for `C=C1CN(c2nc(-c3ccc(-n4cnc(C)c4)c(OC)n3)cs2)c2c3c(nn2C1)CCCC3` [Cmpd 14945] is 35 nM; for `COc1nc(-c2csc(N3CC(N4CCCC4)Cn4nc5c(c43)CCCC5)n2)ccc1-n1cnc(C)c1` (stereo not drawn) [Cmpd 14946] it is 19 nM.
On the same count and under the same terms, the figure for `COc1nc(-c2csc(N3CC(O)(CO)Cn4nc5c(c43)CCCC5)n2)ccc1-n1cnc(C)c1` (stereo not drawn) [Cmpd 15001] is 34 nM; for `COc1nc(-c2csc(N3CCC(C(C)(C)O)n4nc5c(c43)CCCC5)n2)ccc1-n1cnc(C)c1` (stereo not drawn) [Cmpd 15002] it is 65 nM; for `COc1nc(-c2nc(Nc3c4c(nn3CCF)CCCC4)sc2CN2CCN(C)CC2)ccc1-n1cnc(C)c1` [Cmpd 15003] it is 50 nM.
As for `COc1nc(-c2csc(N3C/C(=N\O)Cn4nc5c(c43)CCCC5)n2)ccc1-n1cnc(C)c1` [Cmpd 15004], the midpoint of inhibition, the IC50, lay at 55 nM.
On the same count and under the same terms, the figure for `CO/N=C1\CN(c2nc(-c3ccc(-n4cnc(C)c4)c(OC)n3)cs2)c2c3c(nn2C1)CCCC3` [Cmpd 15188] is 76 nM; for `COc1nc(-c2nc(Nc3c4c(nn3CCF)CCCC4)sc2CN2CCC(F)(F)C2)ccc1-n1cnc(C)c1` [Cmpd 15473] it is 99 nM.
As to `CCn1nc(C2(C)CC2)cc1Nc1csc(-c2ccc(-n3cnc(C)c3)c(OC)n2)n1` [Cmpd 15587], the IC50 worked out at 14 nM.
For `COc1nc(-c2nc(N3CCCn4nc5c(c43)CCCC5)cs2)ccc1-n1cnc(C)c1` [Cmpd 15635], half-maximal inhibition (IC50) required 7 nM.
On the same count and under the same terms, next, `COc1nc(-c2nc(N3CCCn4nc(C5(C)CC5)cc43)cs2)ccc1-n1cnc(C)c1` [Cmpd 15666]: 18 nM; `COc1nc(-c2nc(N3CCCn4nc5c(c43)CCC5)cs2)ccc1-n1cnc(C)c1` [Cmpd 15669]: 5 nM.
Still for that read-out and setting: the figure for `COc1nc(-c2nc(N3CC(C)Cn4nc5c(c43)CCC5)cs2)ccc1-n1cnc(C)c1` (stereo not drawn) [Cmpd 15670] is 16 nM; for `COc1nc(-c2nc(Nc3c4c(nn3CCF)CCCC4)cs2)ccc1-n1cnc(C)c1` [Cmpd 15717] it is 48 nM.
Same read-out and setting: next, `COc1nc(-c2nc(Nc3cc(C4(C)CC4)nn3CCF)cs2)ccc1-n1cnc(C)c1` [Cmpd 15746]: 56 nM.
For `COc1nc(-c2nc(N3CC(C)Cn4nc5c(c43)CCCC5)cs2)ccc1-n1cnc(C)c1` (stereo not drawn) [Cmpd 15830], inhibition was half-maximal at 12 nM (IC50).
Same read-out and setting: the figure for `COc1nc(-c2nc(N3CC(C)Cn4nc(C5(C)CC5)cc43)cs2)ccc1-n1cnc(C)c1` (stereo not drawn) [Cmpd 15868] is 30 nM.
On the same count and under the same terms, the figure for `COc1nc(-c2nc(N3CCCn4nc5c(c43)CCCC5)ns2)ccc1-n1cnc(C)c1` [Cmpd 16211] is 41 nM.

Staying with this assay, now noted: human SHSY5Y neuroblastoma cells stably overexpressing human APP, Aβ42 secreted into media.
On to `COc1nc(-c2csc(N3CC(O)Cn4nc5c(c43)CCCC5)n2)ccc1-n1cnc(C)c1` (stereo not drawn) [14789 A], for which it took 5 nM to reach half-maximal inhibition (IC50).
The same measure, in the same setting: the figure for `COc1nc(-c2csc(N3CC(O)Cn4nc5c(c43)CCCC5)n2)ccc1-n1cnc(C)c1` (stereo not drawn) [14789 B] is 30 nM.
On the same count and under the same terms, next, `COc1nc(-c2csc(N3CC(O)Cn4nc5c(c43)CCC5)n2)ccc1-n1cnc(C)c1` (stereo not drawn) [15496 B]: 33 nM; `COc1nc(-c2csc(N3CC(O)Cn4nc5c(c43)CCC5)n2)ccc1-n1cnc(C)c1` (stereo not drawn) [Cmpd 14200]: 44 nM; `COc1nc(-c2csc(N3CC(O)Cn4nc5c(c43)CCCC5)n2)ccc1-n1cnc(C)c1` (stereo not drawn) [Cmpd 14507]: 17 nM.
